Reference: ChEMBL document CHEMBL1126104, “Synthesis and antiviral activity of some new S-adenosyl-L-homocysteine derivatives” (1992)
In brackets after ≈: the same amount, converted by molar mass.

Key:
[1] = system: Human immunodeficiency virus 1; assay: Antiviral activity against (HIV-1) in MT-4 cells Value in parentheses is inhibitory concentration for cell growth (MT-4); format: functional, MT4
[2] = system: Human alphaherpesvirus 2; assay: Antiviral activity against HSV-2(G) strain in primary rabbit kidney (PRK) / embryonic skin-muscle (E6SM) fibroblast culture lines; format: functional; conditions: Human alphaherpesvirus 2, Muscle tissue
[3] = system: Coxsackievirus B4; assay: Antiviral activity against coxsackie B4 in Vero cell culture lines; format: functional; conditions: Enterovirus B
[4] = system: Coxsackievirus B4; assay: Antiviral activity against coxsackie B4 virus in HeLa cell culture lines; format: functional; conditions: Enterovirus B
[5] = system: Semliki Forest virus; assay: Antiviral activity against semliki forest virus (SFV) in Vero cell culture lines; format: functional
[6] = system: Vesicular stomatitis virus; assay: Antiviral activity against vesicular stomatitis virus (VSV) in HeLa cell culture lines,; format: functional
[7] = system: Vesicular stomatitis virus; assay: Antiviral activity against vesicular stomatitis virus (VSV) in primary rabbit kidney (PRK) / embryonic skin-muscle (E6SM) fibroblast culture lines; format: functional; conditions: Muscle tissue
[8] = system: Vaccinia virus; assay: Antiviral activity against vaccinia virus (VV) in primary rabbit kidney (PRK) / embryonic skin-muscle (E6SM) fibroblast culture lines; format: functional; conditions: Orthopoxvirus vaccinia, Muscle tissue
[9] = system: Human alphaherpesvirus 1; assay: Antiviral activity against HSV-1(KOS) strain in primary rabbit kidney (PRK) / embryonic skin-muscle (E6SM) fibroblast culture lines; format: functional; conditions: Human alphaherpesvirus 1, Muscle tissue
[10] = system: Poliovirus 1; assay: Antiviral activity against polio virus type 1 in HeLa cell culture lines; format: functional; conditions: Enterovirus C
[11] = system: Human respirovirus 3; assay: Antiviral activity against parainfluenza virus type 3 in Vero cell culture lines; format: functional
[12] = system: Sindbis virus; assay: Antiviral activity against sindbis virus in Vero cell culture lines; format: functional
[13] = system: Mammalian orthoreovirus 1; assay: Antiviral activity against reovirus type 1 in Vero cell culture lines; format: functional

Structure (SMILES)	MIC [1] [µg/mL]	MIC [2] [µg/mL]	MIC [3] [µg/mL]	MIC [4] [µg/mL]	MIC [5] [µg/mL]	MIC [6] [µg/mL]	MIC [7] [µg/mL]	MIC [8] [µg/mL]	MIC [9] [µg/mL]	MIC [10] [µg/mL]	MIC [11] [µg/mL]	MIC [12] [µg/mL]	MIC [13] [µg/mL]
Nc1nccc2c1ncn2[C@H]1CC[C@@H](CO)O1	> 100	> 100	> 100	> 200	> 100	> 200	> 100	> 100	> 200	> 200	> 100	> 100	> 100
CC(C)(C)C(=O)OCn1nc([C@@H]2O[C@H](CO)C[C@H]2O)c2ncnc(N)c21	> 20	> 100	> 100	> 100	> 100	> 100	> 100	> 100	> 100	> 100	> 100	> 100	> 100
Nc1ncnc2c([C@@H]3O[C@H](CSCCC(N)C(=O)O)C[C@H]3O)n[nH]c12 (stereo partly drawn)	> 100	> 40	> 40	> 40	> 40	> 40	> 40	> 40	> 40	> 40	> 40	> 40	> 40
Nc1ncnc2c1ncn2[C@@H]1O[C@H](CSCCC(N)C(=O)O)C[C@H]1O (stereo partly drawn)	> 100	> 100	> 200	> 200	> 100	> 200	> 100	> 200	> 100	> 200	> 200	> 200	> 200
COC(=O)C(CCSC[C@@H]1C[C@@H](O)[C@H](n2ccc3c(N)ncnc32)O1)NC(=O)C(F)(F)F (stereo partly drawn)	> 100	> 200	> 200	> 200	> 400	300 (≈ 628 µM)	20 (≈ 41.9 µM)	70 (≈ 147 µM)	> 200	> 400	> 200	> 400	40 (≈ 83.8 µM)
Nc1nccc2c1ncn2[C@@H]1O[C@H](CSCCC(N)C(=O)O)C[C@H]1O (stereo partly drawn)	> 100	> 400	> 400	> 400	> 400	> 400	> 200	> 400	> 400	> 400	> 400	> 400	> 400
Nc1nccc2ncn([C@H]3C[C@H](O)[C@@H](CO)O3)c12	> 50	100 (≈ 400 µM)	> 400	> 200	> 400	> 200	> 200	> 200	150 (≈ 599 µM)	> 200	> 400	> 400	> 400
CC(C)(C)C(=O)OCn1nc([C@@H]2O[C@H](CO)[C@@H](O)[C@H]2O)c2ncnc(N)c21	> 0.8	> 40	> 10	> 40	> 10	30 (≈ 78.7 µM)	30 (≈ 78.7 µM)	> 40	30 (≈ 78.7 µM)	> 40	1 (≈ 2.62 µM)	> 10	3 (≈ 7.87 µM)
Nc1ncnc2c([C@H]3C[C@@H](O)[C@@H](CO)O3)n[nH]c12	> 100	> 400	300 (≈ 1190 µM)	> 400	> 400	> 400	> 400	> 400	> 400	> 400	> 400	> 400	> 400
Nc1ncnc2c1ccn2C1O[C@H](CSCCC(NC(=O)C(F)(F)F)C(=O)O)[C@@H](O)[C@H]1O (stereo partly drawn)	> 20	> 200	> 400	> 400	> 400	> 400	> 200	20 (≈ 41.7 µM)	> 200	> 400	> 400	> 400	> 400
CCOC(=O)C(CCSC[C@H]1OC(n2ccc3c(N)ncnc32)[C@H](O)[C@@H]1O)NC(=O)C(F)(F)F (stereo partly drawn)	> 4	10 (≈ 19.7 µM)	7 (≈ 13.8 µM)	20 (≈ 39.4 µM)	> 40	4 (≈ 7.88 µM)	2 (≈ 3.94 µM)	7 (≈ 13.8 µM)	7 (≈ 13.8 µM)	20 (≈ 39.4 µM)	> 20	> 20	> 20
CC(=O)NC(CCSC[C@H]1OC(n2ccc3c(N)ncnc32)[C@H](O)[C@@H]1O)C(=O)OC(C)C (stereo partly drawn)	> 4	40 (≈ 85.6 µM)	40 (≈ 85.6 µM)	70 (≈ 150 µM)	> 200	20 (≈ 42.8 µM)	10 (≈ 21.4 µM)	10 (≈ 21.4 µM)	> 100	100 (≈ 214 µM)	> 100	> 100	> 70
CCCCOC(=O)C(N)CCSC[C@H]1OC(n2ccc3c(N)ncnc32)[C@H](O)[C@@H]1O (stereo partly drawn)	> 1.6	> 10	> 200	> 40	> 200	7 (≈ 15.9 µM)	20 (≈ 45.5 µM)	2 (≈ 4.55 µM)	20 (≈ 45.5 µM)	> 100	150 (≈ 341 µM)	> 200	70 (≈ 159 µM)
CC(C)(C)C(=O)ONC(CCSC[C@H]1OC(n2ccc3c(N)ncnc32)[C@H](O)[C@@H]1O)C(=O)O (stereo partly drawn)	> 200	> 100	> 400	> 400	> 400	> 400	> 100	20 (≈ 41.4 µM)	> 100	> 400	> 400	> 400	> 400
Nc1ncnc2c(C3O[C@H](CCl)[C@@H](O)[C@H]3O)n[nH]c12 (stereo partly drawn)	> 100	> 200	70 (≈ 245 µM)	> 400	> 100	> 200	> 400	300 (≈ 1050 µM)	> 200	> 400	70 (≈ 245 µM)	> 100	> 100
CCOC(=O)C(CCSC[C@H]1OC(n2ccc3c(N)ncnc32)[C@H](O)[C@@H]1O)NC(C)=O (stereo partly drawn)	> 4	20 (≈ 44.1 µM)	20 (≈ 44.1 µM)	70 (≈ 154 µM)	> 100	> 20	5 (≈ 11 µM)	15 (≈ 33.1 µM)	70 (≈ 154 µM)	70 (≈ 154 µM)	> 40	> 70	> 30
